According to PMC12682947, “Identification of New KCNT1‐Epilepsy Drugs by In Silico, Cell, and Drosophila Modeling” (Annals of Neurology, 2025):
Structures can show the parent of a compound that is named as a salt. Where two headings read alike, the source gives them in different places.

Target: T1, WT/Y796H KCNT1 channels (Homo sapiens, UniProt Q5JUK3, Y796H)
T1 construct: T2A self-cleaving motif ([…]) following the first subunit (C); expressed in transfected cells; host or cells: CHO cells
T1 sequence (Q5JUK3 1-1230): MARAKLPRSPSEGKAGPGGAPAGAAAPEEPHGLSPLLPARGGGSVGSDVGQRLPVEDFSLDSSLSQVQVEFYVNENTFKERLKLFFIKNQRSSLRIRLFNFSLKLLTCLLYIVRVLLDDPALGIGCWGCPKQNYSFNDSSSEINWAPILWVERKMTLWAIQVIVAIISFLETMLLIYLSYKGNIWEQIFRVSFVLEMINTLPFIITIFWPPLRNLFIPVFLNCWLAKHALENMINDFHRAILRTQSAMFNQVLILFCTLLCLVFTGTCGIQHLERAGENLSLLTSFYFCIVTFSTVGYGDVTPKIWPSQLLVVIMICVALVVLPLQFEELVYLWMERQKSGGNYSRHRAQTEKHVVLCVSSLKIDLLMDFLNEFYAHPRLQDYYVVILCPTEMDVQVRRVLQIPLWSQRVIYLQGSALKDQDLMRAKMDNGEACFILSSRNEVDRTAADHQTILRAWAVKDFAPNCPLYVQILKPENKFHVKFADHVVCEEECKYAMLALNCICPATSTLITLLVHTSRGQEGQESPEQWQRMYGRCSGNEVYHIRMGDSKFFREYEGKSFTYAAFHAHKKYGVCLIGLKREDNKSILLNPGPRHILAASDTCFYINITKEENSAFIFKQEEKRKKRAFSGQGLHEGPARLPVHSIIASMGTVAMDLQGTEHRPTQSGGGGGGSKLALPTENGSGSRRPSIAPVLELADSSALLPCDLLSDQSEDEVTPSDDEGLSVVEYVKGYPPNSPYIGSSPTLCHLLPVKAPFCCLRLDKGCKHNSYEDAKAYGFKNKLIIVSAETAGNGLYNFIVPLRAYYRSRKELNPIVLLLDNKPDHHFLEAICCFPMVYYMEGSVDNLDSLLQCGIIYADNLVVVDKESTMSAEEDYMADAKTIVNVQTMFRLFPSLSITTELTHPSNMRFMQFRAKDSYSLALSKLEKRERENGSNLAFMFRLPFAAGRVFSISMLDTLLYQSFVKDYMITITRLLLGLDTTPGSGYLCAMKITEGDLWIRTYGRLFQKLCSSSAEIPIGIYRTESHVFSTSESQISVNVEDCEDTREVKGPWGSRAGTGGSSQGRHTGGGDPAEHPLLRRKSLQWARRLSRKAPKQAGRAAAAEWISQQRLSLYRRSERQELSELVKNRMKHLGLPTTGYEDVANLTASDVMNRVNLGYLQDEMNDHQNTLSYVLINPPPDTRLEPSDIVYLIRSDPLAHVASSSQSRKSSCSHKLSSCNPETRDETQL
T1 sequence (Q5JUK3 2-1230 Y796H limits assumed): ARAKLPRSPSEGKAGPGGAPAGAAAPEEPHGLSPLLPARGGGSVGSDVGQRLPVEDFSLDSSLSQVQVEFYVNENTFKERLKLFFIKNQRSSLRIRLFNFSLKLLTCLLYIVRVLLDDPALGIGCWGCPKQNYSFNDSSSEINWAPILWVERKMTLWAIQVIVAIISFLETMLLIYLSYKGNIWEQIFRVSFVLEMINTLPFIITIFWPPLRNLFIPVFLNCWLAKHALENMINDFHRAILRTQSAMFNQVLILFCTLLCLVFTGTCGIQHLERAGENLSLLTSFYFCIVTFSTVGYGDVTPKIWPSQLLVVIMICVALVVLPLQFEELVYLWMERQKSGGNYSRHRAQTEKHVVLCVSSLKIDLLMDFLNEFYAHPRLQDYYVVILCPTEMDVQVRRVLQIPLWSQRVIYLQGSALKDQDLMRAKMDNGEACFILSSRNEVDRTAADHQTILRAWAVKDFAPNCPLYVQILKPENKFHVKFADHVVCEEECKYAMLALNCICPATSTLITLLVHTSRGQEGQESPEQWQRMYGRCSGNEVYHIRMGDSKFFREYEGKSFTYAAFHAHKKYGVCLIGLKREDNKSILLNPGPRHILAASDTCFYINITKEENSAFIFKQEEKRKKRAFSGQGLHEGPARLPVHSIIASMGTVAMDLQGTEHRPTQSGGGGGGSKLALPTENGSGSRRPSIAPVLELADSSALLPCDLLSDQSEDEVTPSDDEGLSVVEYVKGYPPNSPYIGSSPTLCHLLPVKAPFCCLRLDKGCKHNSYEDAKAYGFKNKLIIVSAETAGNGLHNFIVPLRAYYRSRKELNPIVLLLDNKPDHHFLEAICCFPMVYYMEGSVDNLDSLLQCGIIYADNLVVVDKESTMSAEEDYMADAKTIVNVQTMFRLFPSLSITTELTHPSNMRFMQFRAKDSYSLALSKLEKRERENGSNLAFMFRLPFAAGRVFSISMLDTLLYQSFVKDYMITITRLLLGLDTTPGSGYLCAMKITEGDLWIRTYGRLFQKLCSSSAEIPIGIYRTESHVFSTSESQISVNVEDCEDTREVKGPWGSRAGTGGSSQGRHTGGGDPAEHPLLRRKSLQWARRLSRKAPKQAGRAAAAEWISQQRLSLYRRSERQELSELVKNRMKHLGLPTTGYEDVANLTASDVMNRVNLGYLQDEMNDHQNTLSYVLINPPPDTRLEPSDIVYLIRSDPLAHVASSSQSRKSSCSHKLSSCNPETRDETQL
Experiment: Whole-cell patch clamp of WT/Y796H KCNT1 channels expressed in CHO cells
Assay type: cell-based
From the text: To replicate the heterozygous nature of KCNT1‐associated disorders and obtain channels comprising wild‐type (WT) and mutated subunits, a concatemeric approach was taken. To generate human KCNT1 concatemers, plasmids termed donor and recipient were generated from the pcDNA6‐KCNT1 construct used previously[16] and empty pcDNA6 V5/His6 vector (Invitrogen) using standard polymerase chain reaction (PCR) and cloning techniques. The insert of the donor construct comprised the KCNT1 coding sequence that lacked a start codon and preceded by bases encoding a […] linker. […] The recipient construct was generated by deleting the stop codon and introducing a unique XhoI site. Sequences containing disease mutation Y796H were subcloned into these constructs from a plasmid used previously.[16] All sequences generated by PCR were confirmed by Sanger sequencing (Genewiz, Takeley, UK). Finally, the concatemeric construct was generated by subcloning the XhoI/AgeI fragment from the donor plasmid, containing the in‐frame linker and complete subunit sequence into the same sites in the recipient plasmid. Recombination‐deficient competent Escherichia coli (E. coli) cells and 32°C incubation temperature were used to reduce the frequency of deletions between identical sequences in the plasmid, which was confirmed by restriction analysis. For other experiments, constructs with WT, G288S, R398Q, or R928C mutant forms of KCNT1 cDNA, tagged with YFP‐6His in the pCMV‐entry vectors, were described previously.[10]
The CHO cells were cultured in Dulbecco's modified Eagle's Medium (ThermoFisher, UK) supplemented with 10% (v/v) fetal bovine serum, 50 U/ml penicillin and 0.05 mg/ml streptomycin, and incubated at 37°C in 5% CO2 atmosphere. For whole cell recording of WT/Y796H KCNT1, CHO cells were transiently co‐transfected with concatemeric WT/Y796H and EYFP, as described previously.[29] For electrophysiological experiments, cells were plated onto borosilicate glass cover slips and used 2 to 4 days later. Human embryonic kidney 293T cells (HEK293T) were cultured in the same manner, but with medium supplemented with 2 mM L‐glutamine, and 1% (v/v) nonessential amino acids. For excised inside‐out recording of homomeric WT or mutant YFP‐tagged KCNT1, HEK293T cells plated on glass cover slips were transfected using Attractene Transfection Reagent (Qiagen, Germany) according to the manufacturer's instructions and used 2 to 3 days later.
Whole cell recordings from transiently transfected CHO cells were conducted at room temperature and analyzed as described previously.[29] The pipette (intracellular) solution contained, in mM, 100 K‐gluconate, 30 KCl, 10 Na‐gluconate, 29 glucose, 5 EGTA, and 10 HEPES, adjusted to pH 7.3 with KOH and the bath (extracellular) solution contained, in mM, 140 NaCl, 1 CaCl2, 5 KCl, 29 glucose, 10 HEPES, and 1 MgCl2, adjusted to pH 7.4 with NaOH. For current‐voltage and conductance‐voltage analysis of the concatemeric constructs, cells were held at −80 mV and 400 ms pulses were applied to voltages between −100 and 80 mV. Conductance values (G) with each voltage pulse (V) were obtained by dividing the peak steady‐state current by the driving force (command voltage minus the measured reversal potential). Conductance‐voltage data were fit by a Boltzmann function, G = (G max – G min)/(1 + e^(V‐V½)/k)) + G min, where G max and G min are the maximum and minimum conductance values, V ½ the half‐maximal activation voltage, and slope k. The liquid junction potential was calculated and was used to correct voltage values after data collection. Inhibition by drugs, which were obtained from commercial sources, was determined from currents evoked by 500 ms voltage ramps from −100 to 0 mV at 0.2 hertz (Hz) as described previously.[16] Initially, the drugs (10 mM in DMSO) were diluted to 10 μM in a bath solution and applied via gravity perfusion for 2 minutes, followed by at least a 2‐minute wash with drug‐free solution prior to addition of the next drug. […]

[1] = whole-cell patch clamp, CHO cells
[2] = whole-cell patch clamp, CHO cells, concentration-inhibition analysis, read-out: mean ± SEM IC50

Row | SMILES | potency of concentration-dependent inhibition (in words) [1] | IC50 | inhibition of WT/Y796H KCNT1 channels at 10 μM [1] | IC50 [2]
1 | CCOc1nc2cccc(C(=O)OC(C)OC(=O)OC3CCCCC3)c2n1Cc1ccc(-c2ccccc2-c2nn[nH]n2)cc1 (stereo not shown) [Candesartan cilexetil, candesartan cilexetil] | much less potent |  |  | 
2 | O=C(OCCN1CCN(c2cccc(C(F)(F)F)c2)CC1)c1ccccc1Nc1ccnc2cc(C(F)(F)F)ccc12 [antrafenine] |  | 1.3 ± 0.2 µM | inhibited | 
3 | CC(C)c1c(C(=O)Nc2ccccc2)c(-c2ccccc2)c(-c2ccc(F)cc2)n1CC[C@@H](O)C[C@@H](O)CC(=O)O [atorvastatin] |  |  | inhibited | 7.54 ± 0.99 µM
4 | CC(C)[C@@H](C)/C=C/[C@@H](C)[C@H]1CC[C@H]2/C(=C/C=C3\C[C@@H](O)CC[C@@H]3C)CCC[C@]12C [dihydrotachysterol] |  |  | did not exhibit inhibition | 
5 | CC(C)(C)NC(=O)[C@@H]1CN(Cc2cccnc2)CCN1C[C@@H](O)C[C@@H](Cc1ccccc1)C(=O)N[C@H]1c2ccccc2C[C@H]1O [indinavir] |  |  | did not exhibit inhibition | 
6 | CS(=O)(=O)c1cccc(C[C@H](NC(=O)c2c(Cl)cc3c(c2Cl)CCN(C(=O)c2ccc4ccoc4c2)C3)C(=O)O)c1 [lifitegrast] |  |  | did not exhibit inhibition | 
7 | Cc1c(O)cccc1C(=O)N[C@@H](CSc1ccccc1)[C@H](O)CN1C[C@H]2CCCC[C@H]2C[C@H]1C(=O)NC(C)(C)C [nelfinavir mesylate] |  |  | inhibited | 2.86 ± 0.3 µM
8 | CNC(=O)c1cc(Oc2ccc(NC(=O)Nc3ccc(Cl)c(C(F)(F)F)c3)c(F)c2)ccn1 [regorafenib] |  |  | inhibited | 10.3 ± 1.25 µM
9 | CC(C)N1CCN(c2ccc(OCC3COC(Cn4cncn4)(c4ccc(Cl)cc4Cl)O3)cc2)CC1 (stereo not shown) [terconazole] |  |  | did not exhibit inhibition | 
